Laboratory results as given in patent US7294637B2 (Sepracor, Inc., priority 2000, dated 2007).
Read-outs that look alike come from different tables or passages of the source.

Columns and labels:
[1] = target: norepinephrine transporter (Homo sapiens, UniProt P23975); experiment: NE uptake: displacement of norephinephrine ligands in vitro (methods of Galli et al.); assay type: binding
serotonin transporter = serotonin transporter (Homo sapiens, UniProt P31645); experiment: 5-HT uptake: displacement of serotonin ligands in vitro (methods of Gu et al.); assay type: binding; conditions: displacement of serotonin ligands in vitro; read-out: 5-HT Uptake, Uptake Profile (IC50)
dopamine transporter = dopamine transporter (Homo sapiens, UniProt Q01959); experiment: DA uptake: displacement of dopamine ligands in vitro (methods of Gu et al.)
[2] = NE Uptake, Uptake Profile (IC50, nM)
[3] = DA Uptake, Uptake Profile (IC50, nM), displacement of dopamine ligands in vitro
[4] = read-out: NE Uptake, Uptake Profile (IC50)

Sequence of serotonin transporter (P31645 whole entry): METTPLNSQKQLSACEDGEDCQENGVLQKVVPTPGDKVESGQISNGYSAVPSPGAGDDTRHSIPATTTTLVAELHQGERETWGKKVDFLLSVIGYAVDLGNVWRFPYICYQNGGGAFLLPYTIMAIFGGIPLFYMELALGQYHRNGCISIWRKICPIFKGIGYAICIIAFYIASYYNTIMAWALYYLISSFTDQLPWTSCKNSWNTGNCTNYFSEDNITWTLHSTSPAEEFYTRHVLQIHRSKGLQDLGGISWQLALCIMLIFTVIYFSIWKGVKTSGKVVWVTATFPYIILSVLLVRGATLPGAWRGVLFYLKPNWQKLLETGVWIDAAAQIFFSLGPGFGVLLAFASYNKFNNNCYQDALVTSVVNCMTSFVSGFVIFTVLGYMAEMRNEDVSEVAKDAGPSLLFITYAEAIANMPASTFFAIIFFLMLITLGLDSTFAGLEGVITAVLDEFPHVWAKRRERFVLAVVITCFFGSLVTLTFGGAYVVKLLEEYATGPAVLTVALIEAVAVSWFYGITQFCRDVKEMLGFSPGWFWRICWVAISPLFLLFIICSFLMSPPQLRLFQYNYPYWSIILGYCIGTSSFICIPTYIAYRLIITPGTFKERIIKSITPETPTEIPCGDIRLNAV
Sequence of dopamine transporter (Q01959 whole entry): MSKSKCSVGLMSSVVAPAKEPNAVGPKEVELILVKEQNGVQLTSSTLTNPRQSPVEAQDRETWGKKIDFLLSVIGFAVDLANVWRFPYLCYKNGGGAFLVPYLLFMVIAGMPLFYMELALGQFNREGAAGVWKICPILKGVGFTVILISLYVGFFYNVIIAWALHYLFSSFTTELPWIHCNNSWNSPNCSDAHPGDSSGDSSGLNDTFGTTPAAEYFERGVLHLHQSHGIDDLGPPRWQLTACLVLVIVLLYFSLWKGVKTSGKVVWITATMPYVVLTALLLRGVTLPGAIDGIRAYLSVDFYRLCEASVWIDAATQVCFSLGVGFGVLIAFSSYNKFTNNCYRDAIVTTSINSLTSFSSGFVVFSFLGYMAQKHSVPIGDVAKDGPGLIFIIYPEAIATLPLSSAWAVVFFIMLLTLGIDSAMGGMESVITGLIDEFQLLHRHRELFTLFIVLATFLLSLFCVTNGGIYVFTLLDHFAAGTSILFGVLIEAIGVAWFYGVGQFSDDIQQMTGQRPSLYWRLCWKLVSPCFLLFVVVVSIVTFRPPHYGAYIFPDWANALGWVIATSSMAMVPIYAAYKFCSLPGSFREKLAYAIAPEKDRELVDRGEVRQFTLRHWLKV
Sequence of norepinephrine transporter (P23975 whole entry): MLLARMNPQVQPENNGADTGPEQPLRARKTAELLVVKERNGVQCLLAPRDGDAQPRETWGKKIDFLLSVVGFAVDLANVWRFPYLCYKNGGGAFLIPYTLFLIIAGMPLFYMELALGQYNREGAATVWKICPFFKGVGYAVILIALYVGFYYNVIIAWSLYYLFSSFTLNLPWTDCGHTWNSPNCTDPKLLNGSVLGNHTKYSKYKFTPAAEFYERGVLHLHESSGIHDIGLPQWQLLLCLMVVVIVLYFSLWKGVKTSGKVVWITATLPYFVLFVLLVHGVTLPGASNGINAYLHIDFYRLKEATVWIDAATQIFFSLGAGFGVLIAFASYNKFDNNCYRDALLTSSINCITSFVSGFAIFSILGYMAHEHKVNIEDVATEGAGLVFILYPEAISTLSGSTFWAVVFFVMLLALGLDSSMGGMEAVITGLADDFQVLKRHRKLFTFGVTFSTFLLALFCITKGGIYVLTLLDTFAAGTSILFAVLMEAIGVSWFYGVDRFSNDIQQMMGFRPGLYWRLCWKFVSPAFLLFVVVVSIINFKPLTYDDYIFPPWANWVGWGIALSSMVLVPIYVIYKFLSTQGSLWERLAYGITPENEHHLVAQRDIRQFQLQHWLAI

| SMILES | IC50 [1, 2] [nM] | IC50 (serotonin transporter) [µM] | IC50 (dopamine transporter; [3]) [nM] | IC50 (dopamine transporter; read-out: DA Uptake, Uptake Profile (IC50), displacement of dopamine ligands in vitro) [nM] | IC50 [1, 4] [nM] | IC50 (dopamine transporter) [nM] |
| --- | --- | --- | --- | --- | --- | --- |
| CN(C)CC(Oc1ccc(C(F)(F)F)cc1)C1CCCN(C(=O)C2(c3ccc(Cl)cc3)CCC2)C1 (racemic) [compound 173] | > 1000 | < 0.1 | > 1000 |  |  |  |
| CN(C)CC(Oc1ccc(C(F)(F)F)cc1)C1CCCN(CC2(c3ccc(Cl)cc3)CCC2)C1 (racemic) [compound 174] | < 1000 | < 0.1 | < 100 |  |  |  |
| CN(C)CC(Oc1ccc(C(F)(F)F)cc1)C1CCCN(CC2(c3ccc(Cl)cc3)CCC2)C1 (racemic) [compound 175] | > 1000 | < 1 | < 1000 |  |  |  |
| Clc1ccc(C2(CN3CCCC(COc4ccccc4)C3)CCC2)cc1 (single isomer, unassigned) [compound 5] |  |  | < 1000 |  |  |  |
| Clc1ccc(C2(CN3CCCC(COc4ccccc4)C3)CCC2)cc1 (single isomer, unassigned) [compound 6] |  |  |  | < 1000 |  |  |
| OC(CN1CCCC(CCc2ccccc2)C1)c1ccc(Cl)cc1 (single isomer, unassigned) [compound 141, 1-(4-Chloro-phenyl)-2-(3-phenethyl-piperidin-1-yl)-ethanol] | < 1000 | < 1 | < 1000 |  |  |  |
| OC(CN1CCCC(CCc2ccccc2)C1)c1ccc(Cl)cc1 (single isomer, unassigned) [compound 142, 1-(4-Chloro-phenyl)-2-(3-phenethyl-piperidin-1-yl)-ethanol] | < 1000 | < 0.1 | < 1000 |  |  |  |
| OC(CN1CCCC(CCc2ccc(C(F)(F)F)cc2)C1)c1ccc(Cl)cc1 (single isomer, unassigned) [compound 151, 1-(4-Chloro-phenyl)-2-{3-[2-(4-trifluoromethyl-phenyl)-ethyl]-piperidin-1-yl}-ethanol] | < 1000 | < 1 | < 1000 |  |  |  |
| OC(CN1CCCC(CCc2ccc(C(F)(F)F)cc2)C1)c1ccc(Cl)cc1 (single isomer, unassigned) [compound 152, 1-(4-Chloro-phenyl)-2-{3-[2-(4-trifluoromethyl-phenyl)-ethyl]-piperidin-1-yl}-ethanol] | < 1000 | < 0.1 | < 1000 |  |  |  |
| OC(CN1CCCC(CCc2ccc(C(F)(F)F)cc2)C1)c1ccc(Cl)cc1 (single isomer, unassigned) [compound 153, 1-(4-Chloro-phenyl)-2-{3-[2-(4-trifluoromethyl-phenyl)-ethyl]-piperidin-1-yl}-ethanol] | < 100 | < 0.01 | < 100 |  |  |  |
| OC(CN1CCCC(CCc2ccc(C(F)(F)F)cc2)C1)c1ccc(Cl)cc1 (single isomer, unassigned) [compound 154, 1-(4-Chloro-phenyl)-2-{3-[2-(4-trifluoromethyl-phenyl)-ethyl]-piperidin-1-yl}-ethanol] | < 100 | < 0.01 | < 10 |  |  |  |
| FC(F)(F)c1ccc(OCC2CCCN(CC3COc4ccccc4O3)C2)cc1 (single isomer, unassigned) [compound 176, 1-(2,3-Dihydro-benzo[1,4]dioxin-2-ylmethyl)-3-(4-trifluoromethyl-phenoxymethyl)-piperidine] | > 1000 | < 1 | < 1000 |  |  |  |
| FC(F)(F)c1ccc(OCC2CCCN(CC3COc4ccccc4O3)C2)cc1 (single isomer, unassigned) [compound 177, 1-(2,3-Dihydro-benzo[1,4]dioxin-2-ylmethyl)-3-(4-trifluoromethyl-phenoxymethyl)-piperidine] | > 1000 | < 1 | > 1000 |  |  |  |
| FC(F)(F)c1ccc(OCC2CCCN(CC3COc4ccccc4O3)C2)cc1 (single isomer, unassigned) [compound 178, 1-(2,3-Dihydro-benzo[1,4]dioxin-2-ylmethyl)-3-(4-trifluoromethyl-phenoxymethyl)-piperidine] | < 1000 | < 1 | < 1000 |  |  |  |
| FC(F)(F)c1ccc(OCC2CCCN(CC3COc4ccccc4O3)C2)cc1 (single isomer, unassigned) [compound 179, 1-(2,3-Dihydro-benzo[1,4]dioxin-2-ylmethyl)-3-(4-trifluoromethyl-phenoxymethyl)-piperidine] | < 1000 | < 1 | > 1000 |  |  |  |
| OC(CN1CCCC(CCc2ccc(C(F)(F)F)cc2)C1)C1(c2ccc(Cl)cc2)CCC1 (single isomer, unassigned) [compound 192, 1-[1-(4-Chloro-phenyl)-cyclobutyl]-2-{3-[2-(4-trifluoromethyl-phenyl)-ethyl]-piperidin-1-yl}-ethanol] | < 1000 | < 1 | < 10 |  |  |  |
| OC(CN1CCCC(CCc2ccc(C(F)(F)F)cc2)C1)C1(c2ccc(Cl)cc2)CCC1 (single isomer, unassigned) [compound 193, 1-[1-(4-Chloro-phenyl)-cyclobutyl]-2-{3-[2-(4-trifluoromethyl-phenyl)-ethyl]-piperidin-1-yl}-ethanol] | < 10 | < 1 | < 10 |  |  |  |

| SMILES | IC50 [1, 2] [nM] | IC50 (serotonin transporter) [µM] | IC50 (dopamine transporter; [3]) [nM] | IC50 (dopamine transporter; read-out: DA Uptake, Uptake Profile (IC50), displacement of dopamine ligands in vitro) [nM] | IC50 [1, 4] [nM] | IC50 (dopamine transporter) [nM] |
| --- | --- | --- | --- | --- | --- | --- |
| OC(CN1CCCC(CCc2ccc(C(F)(F)F)cc2)C1)C1(c2ccc(Cl)cc2)CCC1 (single isomer, unassigned) [compound 194, 1-[1-(4-Chloro-phenyl)-cyclobutyl]-2-{3-[2-(4-trifluoromethyl-phenyl)-ethyl]-piperidin-1-yl}-ethanol] | < 100 | < 1 | < 10 |  |  |  |
| OC(CN1CCCC(CCc2ccc(C(F)(F)F)cc2)C1)C1(c2ccc(Cl)cc2)CCC1 (single isomer, unassigned) [compound 195, 1-[1-(4-Chloro-phenyl)-cyclobutyl]-2-{3-[2-(4-trifluoromethyl-phenyl)-ethyl]-piperidin-1-yl}-ethanol] | < 1000 | < 1 | < 100 |  |  |  |
| OC(CN1CCCC(COc2ccc(C(F)(F)F)cc2)C1)C1(c2ccccc2OC(F)(F)F)CCC1 (single isomer, unassigned) [compound 227, 1-[1-(2-Trifluoromethoxy-phenyl)-cyclobutyl]-2-[3-(4-trifluoromethyl-phenoxymethyl)-piperidin-1-yl]-ethanol] | > 1000 | < 1 | < 1000 |  |  |  |
| OC(CN1CCCC(COc2ccc(C(F)(F)F)cc2)C1)C1(c2ccccc2OC(F)(F)F)CCC1 (single isomer, unassigned) [compound 228, 1-[1-(2-Trifluoromethoxy-phenyl)-cyclobutyl]-2-[3-(4-trifluoromethyl-phenoxymethyl)-piperidin-1-yl]-ethanol] |  | > 1 | > 1000 |  | > 1000 |  |
| OC(C[C@H]1CCCN(CC2(c3ccc(Cl)cc3)CCC2)C1)c1ccccc1 (stereo in doubt) [compound 182, (S)-[2-{1-[1-(4-Chloro-phenyl)-cyclobutylmethyl]-piperidin-3-yl}-1-phenyl-ethanol]] |  | < 1 | < 100 |  | > 1000 |  |
| O=C(CC1CCCN(CC2(c3ccc(Cl)cc3)CCC2)C1)c1ccccc1 (stereo in doubt) [compound 183, (S)-[2-{1-[1-(4-Chloro-phenyl)-cyclobutylmethyl]-piperidin-3-yl}-1-phenyl-ethanone]] | < 1000 | < 1 | < 1000 |  |  |  |
| COC(CC1CCCN(CC2(c3ccc(Cl)cc3)CCC2)C1)c1ccccc1 (stereo in doubt) [compound 184, (S)-[1-[1-(4-Chloro-phenyl)-cyclobutylmethyl]-3-(2-methoxy-2-phenyl-ethyl)-piperidine]] | < 1000 | < 1 | < 1000 |  |  |  |
| CC(O)(C[C@H]1CCCN(CC2(c3ccc(Cl)cc3)CCC2)C1)c1ccccc1 (stereo in doubt) [compound 185, (S)-[1-{1-[1-(4-Chloro-phenyl)-cyclobutylmethyl]-piperidin-3-yl}-2-phenyl-propan-2-ol]] |  | > 1 | < 1000 |  | > 1000 |  |
| CC(CC1CCCN(CC2(c3ccc(Cl)cc3)CCC2)C1)c1ccccc1 (stereo in doubt) [compound 186, (S)-1-[1-(4-Chloro-phenyl)-cyclobutylmethyl]-3-(2-phenyl-propyl)-piperidine] | < 1000 | < 1 | < 1000 |  |  |  |
| O=C(N1CCCC(CO)C1)C1(c2ccc(Cl)cc2)CCC1 (centres unmarked) [compound 1, [1-(4-chloro-phenyl)-cyclobutyl]-(3-hydroxymethylpiperidin-1yl)-methadone] | > 1000 | > 1 | > 1000 |  |  |  |
| FC(F)(F)c1ccc(OCC2CCCN(CCc3ccc(Cl)cc3)C2)cc1 (centres unmarked) [compound 8, 1-[2-(4-Chloro-phenyl)-ethyl]-3-(4-trifluoromethyl-phenoxymethyl)-piperidine] |  |  | > 1000 |  | > 1000 |  |
| FC(F)(F)c1ccc(OCC2CN(CC3(c4ccc(Cl)cc4)CCC3)CCCO2)cc1 (centres unmarked) [compound 11] | > 1000 | > 1 | < 1000 |  |  |  |
| FC(F)(F)c1ccc(OCC2CNCCCO2)cc1 (centres unmarked) [compound 15, 2-(4-trifluoromethyl-phenoxymethyl)-[1,4]oxazepane] |  | > 1 | > 1000 |  | > 1000 |  |
| O=C(N1CCCOC(COc2ccc(C(F)(F)F)cc2)C1)C1(c2ccc(Cl)cc2)CCC1 (centres unmarked) [compound 16, [1-(4-Chloro-phenyl)-cyclobutyl]-[2-(4-trifluoromethyl-phenoxymethyl)-[1,4]oxazepan-4-yl]-methanone] |  | > 1 |  |  | > 1000 | > 1000 |
| O=C(CN1CCCC(COc2ccccc2)C1)C1(c2ccc(Cl)cc2)CCC1 (centres unmarked) [compound 20, 1-[1-(4-Chlorophenyl)cyclobutyl]-2-(3-phenoxymethylpiperidin-1-yl)ethanone] | < 1000 | < 1 | < 1000 |  |  |  |
| Clc1ccc(C2(CN3CCC[C@@H](COc4ccccc4)C3)CCC2)cc1 [compound 72] |  |  | < 1000 |  |  |  |
